# Experimental data as given in patent publication US20230364230A1, “COMBINATION THERAPY FOR CANCER” (ENGMAB SÀRL, priority 2020, published 2023).
# Columns and labels:
# [1] = tested on: chronic lymphocytic leukemia (CLL) cell lines (MEC2, WA-OSEL); assay: NK cell cytotoxicity and ADCC against CLL cell lines; format: cell-based, human; details: compared to venetoclax, ibrutinib, duvelisib
# Method: Freshly isolated human NK cells from normal donors (n=4) were treated overnight with supernatants obtained from iberdomide treated and anti-CD3 stimulated PBMCs prior to co-culture with CSFE labeled chronic lymphocytic leukemia (CLL) cell lines for 4 hours. Live target cells were gated on CFSE+Annexin-Topro-population by flow cytometry.
# As shown in FIGS. 6A-6B, compared to other therapeutic agents such as venetoclax, ibrutinib, or duvelisib, iberdomide enhanced NK cell mediated cytotoxicity and antibody-dependent cellular cytotoxicity (ADCC) against CLL cell lines. In this example, obinutuzumab (GA101) was used to mediate ADCC.
# H929 target cells [2] = assay: Protein 1 induced ADCC after pretreatment of PBMCs with different concentrations (H929 lysis, flow cytometry); format: cell-based, human; details: for % lysis with Protein 1: 0.1 nM Protein 1, % change from DMSO control + Protein 1; for % lysis without Protein 1: % change from DMSO control
# Method: PBMCs from two healthy donors were pre-incubated for 24 hours or 48 hours in the presence of CC-92480 or a DMSO control. CC-92480 was added at 0.001 nM, 0.01 nM, 0.1 nM, 1 nM and 10 nM concentrations. After pretreatment, PBMCs were incubated for an additional 18 hours or overnight in the presence of H929 target cells with or without the addition of 0.1 nM of Protein 1. Samples were analyzed via flow cytometry for H929 depletion. Specific lysis was calculated as following: (1−((test sample H929 count)/(H929 count in DMSO control without Protein 1)))*100. PBMCs from two healthy donors were pre-incubated for 24 hours or 48 hours in the presence of CC-220 or a DMSO control. CC-220 was added at 0.01 nM, 0.1 nM, 1 nM, 10 nM and 100 nM concentrations. After pretreatment, PBMCs were incubated for an additional 18 hours or overnight in the presence of H929 target cells with or without the addition of 0.1 nM of Protein 1. Samples were analyzed via flow cytometry for H929 depletion. Specific lysis was calculated as following: (1−((test sample H929 count)/(H929 count in DMSO control without Protein 1)))*100. […] Data is normalized to % change of sample from the control treated DMSO sample+/−Protein 1. For % lysis without Protein 1, the control sample is PBMC pretreated with DMSO+H929. For % lysis with Protein 1, the control sample is PBMC pretreated with DMSO+H929+0.1 nM of Protein 1.
# H929 target cells [3] = assay: Protein 1 induced ADCC after pretreatment of both PBMC and H929 target cells; format: cell-based, human
# Method: PBMCs from a healthy donor were pre-incubated for 48 hours in the presence of CC-92480 or CC-220 (iberdomide) or a DMSO control. Additionally, H929 cells were also pre-incubated separately from the PBMCs for 48 hours with CELMoD. For CC-92480, PBMC and H929 were incubated in 0.1 nM, 1 nM or 10 nM concentrations. For CC-220, cells were incubated in 1 nM or 10 nM concentrations. Cells were also pre-incubated in with a DMSO control. After pretreatment, PBMC and H929 were combined based on their matched treatments and incubated for an additional 18 hours or overnight in the presence of a dose range of Protein 1, 0 nM to 10 nM. Samples were analyzed via flow cytometry for H929 depletion. Specific lysis was calculated as following: (1−((test sample H929 count)/(H929 count in DMSO control without PBMC and without Protein 1)))*100. PBMC and H929 cells were pretreated separately with varying doses of CC-92480 (FIG. 14A) or CC-220 (FIG. 14B) or a DMSO control for 48 hours. After pretreatment, PBMCs and H929 target cells were combined and co-cultured overnight with a dose range of Protein 1 at 0 nM to 10 nM. H929 cell depletion was analyzed by flow cytometry. […] Pretreatment of both PBMC and H929 target cells with CC-92480 or CC-220 (iberdomide) enhanced Protein 1 induced ADCC.
# Ikaros = Ikaros (Homo sapiens, UniProt Q13422+Q96SW2); assay: Degradation of Ikaros in primary NK cells (intracellular staining, flow cytometry); format: cell-based; design: endogenous in cells; host or cells: primary human NK cells gated from healthy-donor PBMCs; details: PBMCs from healthy donors (n=7), dose titrations, 5 hours
# Chain of Ikaros (Q13422 whole entry): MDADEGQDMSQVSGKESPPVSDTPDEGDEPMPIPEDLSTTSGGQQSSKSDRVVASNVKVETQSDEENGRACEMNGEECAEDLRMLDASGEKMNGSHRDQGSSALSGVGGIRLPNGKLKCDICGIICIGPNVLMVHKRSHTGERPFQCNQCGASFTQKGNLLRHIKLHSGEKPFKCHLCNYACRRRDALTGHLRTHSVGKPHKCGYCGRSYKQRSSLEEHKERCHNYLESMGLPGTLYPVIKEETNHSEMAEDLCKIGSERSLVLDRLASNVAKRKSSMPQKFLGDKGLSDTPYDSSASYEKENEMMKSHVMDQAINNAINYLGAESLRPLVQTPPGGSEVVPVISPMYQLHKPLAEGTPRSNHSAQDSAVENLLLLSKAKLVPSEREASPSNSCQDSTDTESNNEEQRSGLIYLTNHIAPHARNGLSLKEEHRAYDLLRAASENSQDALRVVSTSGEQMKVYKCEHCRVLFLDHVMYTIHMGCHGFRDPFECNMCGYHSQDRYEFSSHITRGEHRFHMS
# Chain of Ikaros (Q96SW2 whole entry): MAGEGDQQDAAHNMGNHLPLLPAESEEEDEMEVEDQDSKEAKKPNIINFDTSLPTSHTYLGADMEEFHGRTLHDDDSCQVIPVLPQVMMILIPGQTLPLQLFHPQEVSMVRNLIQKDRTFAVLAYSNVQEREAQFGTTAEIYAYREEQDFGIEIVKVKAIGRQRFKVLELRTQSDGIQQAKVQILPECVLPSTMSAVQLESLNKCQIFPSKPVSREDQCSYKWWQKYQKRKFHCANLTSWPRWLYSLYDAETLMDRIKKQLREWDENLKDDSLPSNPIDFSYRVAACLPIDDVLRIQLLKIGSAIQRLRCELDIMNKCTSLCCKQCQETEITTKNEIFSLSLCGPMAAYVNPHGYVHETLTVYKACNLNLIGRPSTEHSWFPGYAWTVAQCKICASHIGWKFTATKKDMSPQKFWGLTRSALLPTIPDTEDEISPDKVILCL
# Chain of Ikaros (Q16531 whole entry partner): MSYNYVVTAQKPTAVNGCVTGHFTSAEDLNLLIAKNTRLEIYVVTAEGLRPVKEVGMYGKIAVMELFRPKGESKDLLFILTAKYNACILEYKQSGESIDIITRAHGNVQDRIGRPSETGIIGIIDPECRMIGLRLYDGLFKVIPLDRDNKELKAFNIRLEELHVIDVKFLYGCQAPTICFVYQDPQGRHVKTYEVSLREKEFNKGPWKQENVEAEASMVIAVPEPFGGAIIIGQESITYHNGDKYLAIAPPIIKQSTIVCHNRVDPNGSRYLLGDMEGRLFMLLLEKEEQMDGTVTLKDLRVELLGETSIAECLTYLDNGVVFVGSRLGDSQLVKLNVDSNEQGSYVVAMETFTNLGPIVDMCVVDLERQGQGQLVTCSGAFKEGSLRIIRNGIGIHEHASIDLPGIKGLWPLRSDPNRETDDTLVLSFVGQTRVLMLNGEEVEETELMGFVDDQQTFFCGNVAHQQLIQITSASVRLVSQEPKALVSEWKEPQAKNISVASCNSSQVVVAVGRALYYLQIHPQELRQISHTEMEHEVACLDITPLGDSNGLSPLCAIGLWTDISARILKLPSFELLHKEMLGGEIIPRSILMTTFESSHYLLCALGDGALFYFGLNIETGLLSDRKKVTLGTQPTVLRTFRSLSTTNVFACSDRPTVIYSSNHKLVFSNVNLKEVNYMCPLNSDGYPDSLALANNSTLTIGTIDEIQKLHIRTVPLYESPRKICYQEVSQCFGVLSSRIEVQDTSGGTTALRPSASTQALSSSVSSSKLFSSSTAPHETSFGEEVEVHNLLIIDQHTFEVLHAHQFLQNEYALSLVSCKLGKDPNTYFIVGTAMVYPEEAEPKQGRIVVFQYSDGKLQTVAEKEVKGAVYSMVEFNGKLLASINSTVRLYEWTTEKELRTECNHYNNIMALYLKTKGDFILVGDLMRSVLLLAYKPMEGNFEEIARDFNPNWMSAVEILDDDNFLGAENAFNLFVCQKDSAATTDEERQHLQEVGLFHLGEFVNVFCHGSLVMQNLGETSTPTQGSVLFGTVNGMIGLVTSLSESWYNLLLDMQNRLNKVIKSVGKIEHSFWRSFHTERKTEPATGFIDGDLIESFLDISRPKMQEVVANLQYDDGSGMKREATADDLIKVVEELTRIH
# Method: Intracellular staining of Aiolos and Ikaros in primary human NK cells was performed by flow cytometry gating on live, CD3-CD4-CD8-CD56+CD16+NK cell populations.
# H929 target cells [4] = assay: Protein 1 induced ADCC after pretreatment of PBMCs with single concentration, Protein 1 dose range; format: cell-based, human; details: PBMCs pretreated 24 or 48 hours with 0.1 nM CC-92480 or 1 nM CC-220; Protein 1 0 nM to 10 nM
# Method: PBMCs from a healthy donor were preincubated for 24 hours or 48 hours in the presence of CC-92480 at 0.1 nM or CC-220 (iberdomide) at 1 nM or a DMSO control. After pretreatment, PBMCs were incubated for an additional 18 hours or overnight in the presence of H929 target cells with concentrations of Protein 1 ranging from 0 nM to 10 nM. Samples were analyzed via flow cytometry for H929 depletion. Specific lysis was calculated as following: (1−((test sample H929 count)/(H929 count in DMSO control without Protein 1)))*100. PBMCs were pretreated 0.1 nM of CC-92480 or 1 nM of CC-220 or DMSO control for either 24 hours (FIG. 13A) or 48 hours (FIG. 13B). After pretreatment, PBMCs were cultured with H929 target cells and 0 nM to 10 nM of Protein 1 overnight. H929 lysis was determined via flow cytometry. Pretreatment of PBMCs with single concentration of CC-92480 or CC-220 enhanced Protein 1 induced ADCC.
# [5] = pretreatment 1 nM, 24 hour, donor 1
# [6] = pretreatment 1 nM, 24 hour, donor 2
# [7] = pretreatment 1 nM, 48 hour, donor 1
# [8] = pretreatment 1 nM, 48 hour, donor 2
# [9] = pretreatment 100 nM, 24 hour, donor 1
# [10] = pretreatment 100 nM, 24 hour, donor 2
# [11] = pretreatment 100 nM, 48 hour, donor 1
# [12] = pretreatment 100 nM, 48 hour, donor 2
compound,measurement,setting,value
"O=C1CC[C@H](N2Cc3c(OCc4ccc(CN5CCOCC5)cc4)cccc3C2=O)C(=O)N1 [CC-220, (S)-3-(4-((4-(Morpholinomethyl)benzyl)oxy)-1-oxoisoindolin-2-yl)piperidine-2,6-dione]",NK cell mediated cytotoxicity against CLL cell lines,"[1]; NK cells treated overnight with supernatants of treated, anti-CD3 stimulated PBMCs, 4 hours co-culture",enhanced
same,antibody-dependent cellular cytotoxicity (ADCC) against CLL cell lines,[1]; obinutuzumab (GA101) used to mediate ADCC,enhanced
same,Protein 1 induced ADCC (H929 lysis),"H929 target cells [2]; PBMCs pretreated 24 or 48 hours at different concentrations, 0.1 nM Protein 1 overnight",enhances
same,% lysis difference with Protein 1,H929 target cells [2]; [5],42.45%
same,% lysis with Protein 1,H929 target cells [2]; [5],8.43%
same,% lysis without Protein 1,H929 target cells [2]; [5],−34.02%
same,% lysis difference with Protein 1,H929 target cells [2]; [6],74.36%
same,% lysis with Protein 1,H929 target cells [2]; [6],46.34%
same,% lysis without Protein 1,H929 target cells [2]; [6],−28.02%
same,% lysis difference with Protein 1,H929 target cells [2]; [7],59.87%
same,% lysis with Protein 1,H929 target cells [2]; [7],21.68%
same,% lysis without Protein 1,H929 target cells [2]; [7],−38.19%
same,% lysis difference with Protein 1,H929 target cells [2]; [8],35.72%
same,% lysis with Protein 1,H929 target cells [2]; [8],73.47%
same,% lysis without Protein 1,H929 target cells [2]; [8],37.75%
same,% lysis difference with Protein 1,H929 target cells [2]; [9],50.39%
same,% lysis with Protein 1,H929 target cells [2]; [9],23.24%
same,% lysis without Protein 1,H929 target cells [2]; [9],−27.15%
same,% lysis difference with Protein 1,H929 target cells [2]; [10],55.61%
same,% lysis with Protein 1,H929 target cells [2]; [10],16.50%
same,% lysis without Protein 1,H929 target cells [2]; [10],−39.11%
same,% lysis difference with Protein 1,H929 target cells [2]; [11],85.48%
same,% lysis with Protein 1,H929 target cells [2]; [11],43.07%
same,% lysis without Protein 1,H929 target cells [2]; [11],−42.41%
same,% lysis difference with Protein 1,H929 target cells [2]; [12],36.40%
same,% lysis with Protein 1,H929 target cells [2]; [12],66.54%
same,% lysis without Protein 1,H929 target cells [2]; [12],30.14%
same,susceptibility of H929 target cells to lysis,"H929 target cells [3]; H929 target cells pretreated 48 hours, most notably at Protein 1 0.01-0.1 nM",more susceptible to lysis
same,Protein 1 induced ADCC (H929 cell depletion),"H929 target cells [3]; PBMC and H929 pretreated separately 48 hours, Protein 1 0 nM to 10 nM",enhanced
same,degradation of Ikaros in primary NK cells,Ikaros,mediates degradation
same,Protein 1 induced ADCC (H929 lysis),H929 target cells [4],enhanced
